Reference: patent publication EP0239461A1, “N-¬¬(hydroxy-2-phenyl)(phenyl)methylene amino-2 ethyl acetamide derivatives, process for their preparation and their therapeutical use” (SYNTHELABO, priority 1986, dated 1987)

Key:
[1] = test system: ulcère d'estomac induit par la phénylbutazone; experiment: Phenylbutazone-induced stomach ulcer in the rat; type: in vivo; conditions: po, maximal decrease of ulcers, 30 min before phenylbutazone 200 mg/kg p.o., female Wistar rats, scored 2 h later, read-out: Diminution ulcération (%); for inhibition in vivo at 30 mg/kg: dose 30 mg/kg p.o.; for inhibition in vivo at 100 mg/kg: dose 100 mg/kg p.o.
Description: Les composés de l'invention ont été testés quant à leur effet sur l'ulcère d'estomac induit par la phénylbutazone chez le rat.
Le test est effectué sur des rats Wistar femelles pesant 180-210 g à jeun depuis 20 heures, répartis en blocs randomisés.
Les ulcères sont provoqués par l'administration orale de phénylbutazone en solution mole à mole avec de la soude, à la dose de 200 mg/kg.
Les composés à étudier sont administrés par voie orale à raison de 10, 30 ou 100 mg/kg, 30 minutes avant l'ingestion de phénylbutazone, les animaux témoins ne recevant que le placébo.
Deux heures après l'administration de l'agent ulcérigène, les animaux sont sacrifiés par inhalation de chloroforme. Les estomacs sont prélevés et le degré d'ulcération est noté en aveugle de 0 à 3.
(§1) Le tableau suivant donne les toxicités et les diminutions maximales d'ulcères obtenues aux doses indiquées, pour quelques composés de l'invention.

[2] = Acute toxicity, oral LD50 in the mouse; conditions: in vivo, read-out: DL50 (mg/kg) p.o.
Description: Leur toxicité aigüe est faible : la dose léthale à 50 % (LD50) déterminée chez la souris est supérieure à 1000 mg/kg par la voie orale pour la plupart d'entre eux.
as §1

O=C(CN1CCC(O)CC1)NCCN=C(c1cc(Cl)ccc1O)c1ccccc1Cl [Composé n° 1, N-[[[(chloro-5 hydroxy-2 phényl)(chloro-2 phényl)méthylène]amino]-2 éthyl] (hydroxy-4 pipéridinyl-1)-2 acétamide]
inhibition in vivo at 30 mg/kg [1]: 100% | LD50 [2]: > 1000 mg/kg

O=C(CN1CCC(O)CC1)NCCN=C(c1ccccc1)c1cc(Cl)ccc1O [Composé n° 2]
inhibition in vivo at 100 mg/kg [1]: 100% | LD50 [2]: > 1000 mg/kg

Cc1ccc(O)c(C(=NCCNC(=O)CN2CCC(O)CC2)c2ccccc2Cl)c1 [Composé n° 7, N-[[[(méthyl-5 hydroxy-2 phényl)(chloro-2 phényl)méthylène]amino]-2 éthyl] (hydroxy-4 pipéridinyl-1)-2 acétamide]
inhibition in vivo at 30 mg/kg [1]: 95% | LD50 [2]: > 1000 mg/kg

Cc1cc(Cl)cc(C(=NCCNC(=O)CN2CCC(O)CC2)c2ccc(Cl)cc2)c1O [compound 3]
inhibition in vivo at 30 mg/kg [1]: 94% | LD50 [2]: > 1000 mg/kg

Cc1ccc(C(=NCCNC(=O)CN2CCC(O)CC2)c2cc(Cl)ccc2O)cc1 [compound 4]
inhibition in vivo at 100 mg/kg [1]: 96% | LD50 [2]: > 1000 mg/kg

O=C(CN1CCC(O)CC1)NCCN=C(c1ccc(Cl)c(Cl)c1)c1cc(Cl)ccc1O [compound 5]
inhibition in vivo at 30 mg/kg [1]: 92% | LD50 [2]: > 1000 mg/kg

O=C(CN1CCC(O)CC1)NCCN=C(c1ccccc1Cl)c1cc(Cl)cc(Cl)c1O [compound 6]
inhibition in vivo at 30 mg/kg [1]: 100% | LD50 [2]: > 1000 mg/kg

O=C(CN1CCC(O)CC1)NCCN=C(c1cc(Cl)ccc1O)c1ccc(Cl)cc1Cl [compound 8]
inhibition in vivo at 100 mg/kg [1]: 98% | LD50 [2]: > 1000 mg/kg

Cc1ccccc1N1CCN(CC(=O)NCCN=C(c2cc(Cl)ccc2O)c2ccccc2Cl)CC1 [compound 19]
inhibition in vivo at 100 mg/kg [1]: 71% | LD50 [2]: > 1000 mg/kg

O=C(CN1CCNCC1)NCCN=C(c1cc(Cl)ccc1O)c1ccccc1Cl [compound 23]
inhibition in vivo at 10 mg/kg ([1]; dose 10 mg/kg p.o.): 87%

O=C(CN1CCC(O)CC1)NCCNC(c1cc(Cl)ccc1O)c1ccccc1Cl (stereo not shown) [compound 26]
inhibition in vivo at 30 mg/kg [1]: 97% | LD50 [2]: > 1000 mg/kg

Cc1ccccc1N1CCN(CC(=O)NCCNC(c2cc(Cl)ccc2O)c2ccccc2Cl)CC1 (stereo not shown) [compound 27]
inhibition in vivo at 30 mg/kg [1]: 98% | LD50 [2]: > 1000 mg/kg

O=C(CN1CCN(c2ccc(Cl)cc2)CC1)NCCNC(c1cc(Cl)ccc1O)c1ccccc1Cl (stereo not shown) [compound 29]
inhibition in vivo at 30 mg/kg [1]: 98% | LD50 [2]: > 1000 mg/kg
